Experimental data as given in patent publication US20150344466A1 (SUMITOMO CHEMICAL COMPANY, LIMITED, priority 2013, published 2015).

Key:
Type in all cases: in vivo
Blattella germanica [1] = assay: Knockdown spray test on Blattella germanica, 0.1% w/v oil formulation (Test Example 2); conditions: topical, 0.25 h, active ingredient 0.1% w/v, 1.5 ml sprayed, within 15 minutes, read-out: knockdown rate of the test insects within 15 minutes
Outline: (§1)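 Ten German cockroaches (5 males, 5 females) in a mesh-bottomed, butter-walled container were sprayed with 1.5 ml test solution from 60 cm at 0.42 kg/cm^2 inside a chamber.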

Culex pipiens pallens [2] = assay: Knockdown spray test on adult Culex pipiens pallens (Test Example 4); conditions: topical, 0.25 h, active ingredient 0.1% w/v, 0.5 ml sprayed, within 15 minutes, read-out: knockdown rate of the test insects within 15 minutes
Outline: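 Knockdown counts were taken 2, 5 and 15 min after spraying and expressed as percent of the 10 adults tested. For the spray, 0.5 ml of solution was applied by spray gun (0.4 kg/cm^2) from 30 cm above a gauze-covered cup in a test chamber; the cup was taken out right after spraying.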

Culex pipiens pallens [3] = assay: Larvicidal test on Culex pipiens pallens, one day (Test Example 6); conditions: 24 h; last-instar larvae of Culex pipiens pallens; 3.5 ppm in water; one day later; read-out: death rate
Description: Each of the formulations of Compounds of Present Invention (39), (63), (71), (72), (92), (93), (95), (106), (150), (171), (170), (181), (182), (183), (187), (188), (189), (190), (191), (192), (200), (201), (201), (234), (246), (290) and (299) obtained in Formulation Example 15 was diluted with water, so as to have a concentration of the active ingredient of 500 ppm, to prepare a test drug solution.
(§2) 20 last-instar larvae of Culex pipiens pallens were released into a liquid to which 0.7 ml of the above test drug solution was added to 100 ml of ion-exchanged water (a concentration of the active ingredient of 3.5 ppm). One day later, the life and death of the Culex pipiens pallens was examined, and the death rate was calculated. The death rate was calculated by the following equation.
(§3) Death rate (%)=(Number of dead insects/Number of tested insects)×100

Culex pipiens pallens [4] = assay: Larvicidal test on Culex pipiens pallens, eight days (Test Example 7); conditions: 192 h; last-instar larvae of Culex pipiens pallens; 3.5 ppm in water; eight days later; read-out: death rate
Description: as §2, with “Eight days” for “One day”
as §3

Plutella xylostella = assay: Foliar spray test on Plutella xylostella on cabbage (Test Example 10); conditions: 120 h, third instar larvae of Plutella xylostella on cabbage, 500 ppm spray 20 ml/cup, after five days, read-out: controlling value
Outline: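 Cabbage at the third–fourth true-leaf stage sprayed with test solution at 20 ml/cup, dried, then infested with 10 third-instar larvae. Insects counted after five days; controlling value (%) calculated from treated and non-treated counts before treatment and at observation.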

Spodoptera litura = assay: Foliar spray test on Spodoptera litura on cabbage (Test Example 11); conditions: 96 h, fourth instar larvae of Spodoptera litura on cabbage, 500 ppm spray 20 ml/cup, after 4 days, read-out: controlling value
Description: On the other hand, cabbage was planted in a polyethylene cup, and grown until the third-fourth true leaf was spread. The test spray solution was sprayed to the cabbage at a ratio of 20 ml/cup. After the drug solution sprayed orn the cabbage was dried, 10 fourth instar larvae of Spodoptera litura were allowed to parasitize the cabbage. After 4 days, the number of surviving Spodoptera litura on the cabbage leaves was examined, and the controlling value was calculated according to the following equation. Controlling value (%)={1−(Cb×Tai)/([…])}×100 In the equation, the symbols represent as follows. Cb: the number of insects in a non-treated section before treatment Cai: the number of insects in a non-treated section on observation Tb: the number of insects in a treated section before treatment Tai: the number of insects in a treated section on observation

Aphis gossypii = assay: Soil treatment test on Aphis gossypii on cucumber (Test Example 9); conditions: 168 h, 5 ml treatment solution in contact with soil, seven days after putting insects, read-out: controlling value
Description: On the other hand, cucumber was planted in a polyethylene cup with a plurality of small holes on the bottom and grown until the first true leaf was spread. A cup in which cucumber was planted was put in a plastic cup with 5 ml of the test treatment solution, so that the soil in the cup was in contact with the treatment liquid. After five days, about 20Aphis gossypii were allowed to parasitize the cucumber, and seven days after putting insects, the number of Aphis gossypii was investigated, and the controlling value was calculated according to the following equation. Controlling value (%)={1−(Cb×Tai)/([…])}×100 In the equation, the symbols represent as follows. Cb: the number of insects in a non-treated section before treatment Cai: the number of insects in a non-treated section on observation Tb: the number of insects in a treated section before treatment Tai: the number of insects in a treated section on observation

Blattella germanica [5] = assay: Knockdown spray test on Blattella germanica, 2.0% w/v oil formulation (Test Example 1); conditions: topical, 0.25 h, active ingredient 2.0% w/v, 1.5 ml sprayed, within 15 minutes, read-out: knockdown rate of the test insects within 15 minutes
Outline: as §1

Musca domestica [6] = assay: Knockdown spray test on adult Musca domestica (Test Example 3); conditions: topical, 0.25 h, active ingredient 2.0% w/v, 0.5 ml sprayed, within 15 minutes, read-out: knockdown rate of the test insects within 15 minutes
Outline: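 Ten adult house flies (5 male, 5 female) in a gauze-covered cup sprayed with 0.5 ml test solution from 30 cm at 0.9 kg/cm^2 inside a chamber, then removed. Knocked-down flies counted at 2, 5 and 15 min and expressed as % of insects tested.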

Musca domestica [7] = assay: Filter paper/sucrose bait death rate test on Musca domestica (Test Example 5); conditions: female imagoes of Musca domestica, 0.7 ml on filter paper, after 24 hours
Outline: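 Ten female imagoes were confined in a sealed cup over a filter paper treated with 0.7 ml of test solution and 30 mg sucrose bait. Mortality was scored at 24 h and expressed as percent of tested insects killed.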

| Compound | pest or weed control at 0.1 % strength (Blattella germanica [1]) [%] | pest or weed control at 0.1 % strength (Culex pipiens pallens [2]) [%] | pest or weed control at 3.5 ppm (Culex pipiens pallens [3]) [%] | pest or weed control at 3.5 ppm (Culex pipiens pallens [4]) [%] | pest or weed control at 500 ppm (Plutella xylostella) [%] | pest or weed control at 500 ppm (Spodoptera litura) [%] | pest or weed control at 500 ppm (Aphis gossypii) [%] | pest or weed control at 2 % strength (Blattella germanica [5]) [%] | pest or weed control at 2 % strength (Musca domestica [6]) [%] | pest or weed control at 500 ppm (Musca domestica [7]) [%] |
| --- | --- | --- | --- | --- | --- | --- | --- | --- | --- | --- |
| O=C(NCC1CCOC1)c1cc(COc2ccc(OC(F)(F)F)cc2)on1 (stereo not drawn) [(190), N-(tetrahydrofuran-3-ylmethyl)-5-(4-trifluoromethoxyphenoxymethyl)isoxazole-3-carboxamide] | ≥ 80 | ≥ 80 | ≥ 90 | ≥ 90 | ≥ 90 | ≥ 80 |  |  |  |  |
| O=C(NCC1CCOCC1)c1cc(COc2ccc(OC(F)(F)F)cc2)on1 [(191), N-(tetrahydropyran-4-ylmethyl)-5-(4-trifluoromethoxyphenoxymethyl)isoxazole-3-carboxamide] |  | ≥ 80 | ≥ 90 | ≥ 90 | ≥ 90 | ≥ 80 |  |  |  |  |
| O=C(NCCC1CCOCC1)c1cc(COCc2ccccc2)on1 [(18), N-[2-(tetrahydropyran-4-yl)ethyl]-5-benzyloxymethylisoxazole-3-carboxamide] |  | ≥ 80 |  |  |  |  | ≥ 90 |  |  |  |
| O=C(NCC1CCOC1)c1cc(COc2ccc3c(c2)OCO3)on1 (stereo not drawn) [(204), N-(tetrahydrofuran-3-ylmethyl)-5-(5-(1,3-benzodioxolanyl)oxymethyl)isoxazole-3-carboxamide] | ≥ 80 | ≥ 80 |  |  |  |  | ≥ 90 |  |  |  |
| O=C(NCC1CCOCC1)c1cc(COCc2ccc(Br)cc2)on1 [(92), N-(tetrahydropyran-4-ylmethyl)-5-(4-bromobenzyloxymethyl)isoxazole-3-carboxamide] | ≥ 80 | ≥ 80 | ≥ 90 | ≥ 90 | ≥ 90 |  |  |  |  |  |
| CCCc1cc(C(=O)NCC2CCOC2)n(C)n1 (stereo not drawn) [(3), N-(tetrahydrofuran-3-ylmethyl)-1-methyl-3-propyl-1H-pyrazole-5-carboxamide] |  |  |  |  |  |  | ≥ 90 |  |  |  |
| Cc1c(C(=O)NCC2CCOC2)noc1CCCc1ccc2ccccc2c1 (stereo not drawn) [(290), N-(tetrahydrofuran-3-ylmethyl)-4-methyl-5-[3-(2-naphthyl)propyl]isoxazole-3-carboxamide] | ≥ 80 | ≥ 80 | ≥ 90 |  | ≥ 90 | ≥ 80 |  | ≥ 80 | ≥ 80 | ≥ 90 |
| CCCCn1cc(C(=O)NCC2CCOC2)cn1 (stereo not drawn) [(51), N-(tetrahydrofuran-3-ylmethyl)-1-butyl-1H-pyrazole-4-carboxamide] |  |  |  |  |  |  | ≥ 90 |  |  |  |
| O=C(NCC1CCOC1)c1cc(COc2cccc(F)c2)on1 (stereo not drawn) [(194), N-(tetrahydrofuran-3-ylmethyl)-5-(3-fluorophenoxymethyl)isoxazole-3-carboxamide] | ≥ 80 | ≥ 80 |  |  |  |  | ≥ 90 |  |  |  |
| O=C(NCC1CCOCC1)c1cc(COc2cccc(OC(F)(F)F)c2)on1 [(201), N-(tetrahydropyran-4-ylmethyl)-5-(3-trifluoromethoxyphenoxymethyl)isoxazole-3-carboxamide] |  | ≥ 80 | ≥ 90 | ≥ 90 | ≥ 90 | ≥ 80 |  |  |  |  |
